Here are results for 21 compounds from ChEMBL document CHEMBL4376834, “Discovery of 4H-Chromen-4-one Derivatives as a New Class of Selective Rho Kinase (ROCK) Inhibitors, which Showed Potent Activity in ex Vivo Diabetic Retinopathy Models” (J Med Chem, 2019).

The structures appear in SMILES notation.

The target in assay [1] is Rho-associated protein kinase 2 (Homo sapiens, UniProt O75116). In words: Inhibition of recombinant human ROCK2 (11 to 552 residues) using KEAKEKRQEQIAKR as substrate incubated for 40 mins in presence of [gamma-33P]ATP and 10 uM ATP by radiometric scintillation counting analysis.
Sequence of Rho-associated protein kinase 2 (O75116 whole entry, the tested form may be a part): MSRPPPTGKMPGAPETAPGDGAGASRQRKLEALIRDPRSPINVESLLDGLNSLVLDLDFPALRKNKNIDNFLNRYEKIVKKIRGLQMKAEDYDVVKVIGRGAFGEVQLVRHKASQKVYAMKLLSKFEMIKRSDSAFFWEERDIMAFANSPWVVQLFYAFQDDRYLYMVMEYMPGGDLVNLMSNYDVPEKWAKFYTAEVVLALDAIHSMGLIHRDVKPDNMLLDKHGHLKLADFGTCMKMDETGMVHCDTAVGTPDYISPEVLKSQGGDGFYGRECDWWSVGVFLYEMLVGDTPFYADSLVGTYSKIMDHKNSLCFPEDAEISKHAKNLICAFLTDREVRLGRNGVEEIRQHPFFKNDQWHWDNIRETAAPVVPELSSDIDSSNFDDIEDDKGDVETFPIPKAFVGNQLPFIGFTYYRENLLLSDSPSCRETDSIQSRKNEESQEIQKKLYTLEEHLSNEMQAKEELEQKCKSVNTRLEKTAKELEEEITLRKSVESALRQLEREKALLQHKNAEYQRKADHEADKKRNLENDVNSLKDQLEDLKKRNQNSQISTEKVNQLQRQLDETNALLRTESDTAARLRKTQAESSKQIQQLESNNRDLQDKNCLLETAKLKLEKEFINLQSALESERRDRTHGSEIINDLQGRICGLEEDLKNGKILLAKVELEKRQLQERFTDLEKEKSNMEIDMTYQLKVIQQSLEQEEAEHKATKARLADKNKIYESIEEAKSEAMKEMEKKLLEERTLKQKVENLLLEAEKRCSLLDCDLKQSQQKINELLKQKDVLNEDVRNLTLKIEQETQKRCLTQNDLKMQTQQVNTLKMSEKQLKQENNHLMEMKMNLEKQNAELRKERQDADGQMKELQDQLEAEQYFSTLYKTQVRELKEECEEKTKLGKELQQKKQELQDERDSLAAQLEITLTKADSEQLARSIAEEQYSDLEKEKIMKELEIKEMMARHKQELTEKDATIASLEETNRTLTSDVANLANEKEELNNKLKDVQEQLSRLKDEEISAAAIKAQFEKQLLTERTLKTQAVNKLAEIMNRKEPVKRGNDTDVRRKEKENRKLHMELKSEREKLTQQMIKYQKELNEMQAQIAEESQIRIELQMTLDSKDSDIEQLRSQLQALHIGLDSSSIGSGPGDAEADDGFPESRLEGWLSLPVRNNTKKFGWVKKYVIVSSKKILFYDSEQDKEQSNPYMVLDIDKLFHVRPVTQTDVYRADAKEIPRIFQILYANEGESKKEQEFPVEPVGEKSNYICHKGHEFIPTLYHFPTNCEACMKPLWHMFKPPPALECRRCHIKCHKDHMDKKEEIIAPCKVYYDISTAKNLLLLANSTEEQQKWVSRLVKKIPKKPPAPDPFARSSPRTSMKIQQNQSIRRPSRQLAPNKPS
The target in assay [2] is Rho-associated protein kinase 1 (Homo sapiens, UniProt Q13464). Description: Inhibition of recombinant human ROCK1 (17 to 535 residues) using […] as substrate incubated for 40 mins in presence of [gamma-33P]ATP and 10 uM ATP by radiometric scintillation counting analysis.
Sequence of Rho-associated protein kinase 1 (Q13464 whole entry, the tested form may be a part): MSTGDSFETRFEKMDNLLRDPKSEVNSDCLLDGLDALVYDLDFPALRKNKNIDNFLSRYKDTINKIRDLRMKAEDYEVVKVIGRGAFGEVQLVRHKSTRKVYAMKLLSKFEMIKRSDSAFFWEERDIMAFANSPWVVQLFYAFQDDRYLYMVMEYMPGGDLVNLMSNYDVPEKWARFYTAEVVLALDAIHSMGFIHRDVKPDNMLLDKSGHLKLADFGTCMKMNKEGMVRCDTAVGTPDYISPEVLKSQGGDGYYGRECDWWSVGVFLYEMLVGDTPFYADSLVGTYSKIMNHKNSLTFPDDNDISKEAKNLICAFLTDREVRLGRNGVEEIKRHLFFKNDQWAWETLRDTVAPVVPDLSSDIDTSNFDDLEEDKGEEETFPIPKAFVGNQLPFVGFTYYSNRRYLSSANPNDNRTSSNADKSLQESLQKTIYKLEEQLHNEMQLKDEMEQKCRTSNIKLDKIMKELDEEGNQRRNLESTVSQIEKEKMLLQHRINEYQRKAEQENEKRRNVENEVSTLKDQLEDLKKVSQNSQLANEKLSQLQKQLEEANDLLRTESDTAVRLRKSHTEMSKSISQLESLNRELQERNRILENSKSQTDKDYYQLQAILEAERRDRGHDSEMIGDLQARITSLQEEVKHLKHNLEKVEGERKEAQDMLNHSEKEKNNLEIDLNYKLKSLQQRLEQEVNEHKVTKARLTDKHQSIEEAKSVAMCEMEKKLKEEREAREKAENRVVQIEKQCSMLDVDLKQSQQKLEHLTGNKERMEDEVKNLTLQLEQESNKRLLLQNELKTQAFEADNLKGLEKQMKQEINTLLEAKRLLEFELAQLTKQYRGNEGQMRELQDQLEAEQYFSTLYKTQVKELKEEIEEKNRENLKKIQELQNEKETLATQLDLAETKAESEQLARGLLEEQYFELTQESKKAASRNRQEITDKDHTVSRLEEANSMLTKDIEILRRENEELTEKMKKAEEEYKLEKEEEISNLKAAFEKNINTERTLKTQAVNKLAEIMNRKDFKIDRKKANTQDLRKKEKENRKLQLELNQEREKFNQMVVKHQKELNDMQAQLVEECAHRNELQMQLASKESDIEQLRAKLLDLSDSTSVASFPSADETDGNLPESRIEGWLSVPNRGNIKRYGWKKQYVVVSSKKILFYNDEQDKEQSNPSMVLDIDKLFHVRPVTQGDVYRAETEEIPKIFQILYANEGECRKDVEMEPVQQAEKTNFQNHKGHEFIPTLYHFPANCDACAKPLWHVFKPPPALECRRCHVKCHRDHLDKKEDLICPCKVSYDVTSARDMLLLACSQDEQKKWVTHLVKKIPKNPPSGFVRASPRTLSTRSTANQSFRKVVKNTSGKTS
Assay [3] in a line: Inhibition of human PKA using Kemptide as substrate incubated for 40 mins in presence of [gamma-33P]ATP by radiometric scintillation counting analysis.

On to `CC(=O)c1ccc(OCC(=O)Nc2cccc(NC(=O)c3ccc(N(C)C)cc3)c2)cc1F`, for which the figures for the IC50 in assay [1], in assay [2] and in assay [3] were 0.098 µM, 0.445 µM and more than 10 µM, respectively.
The matching figures for `CCCC(=O)Nc1cccc(NC(=O)COc2ccc3c(=O)ccoc3c2)c1`: 0.176 µM, 1.43 µM and more than 10 µM.
The matching figures for `CCc1ccc(C(=O)Nc2cccc(NC(=O)COc3ccc4c(=O)ccoc4c3)c2)cc1`: 0.024 µM, 0.235 µM and more than 10 µM.
With `Cc1c(OCC(=O)Nc2cccc(NC(=O)c3ccc(N(C)C)cc3)c2)ccc2c(=O)ccoc12`, the half-maximal inhibitory concentration (IC50) in assay [1] was 4.16 µM; in assay [2] it was more than 10 µM; in assay [3], more than 10 µM.
As for `Cc1ccc(C(=O)Nc2cccc(NC(=O)COc3ccc4c(=O)ccoc4c3)c2)cc1`, the IC50 in assay [1] was 0.022 µM; in assay [2], 0.183 µM; in assay [3], more than 10 µM.
The matching figures for `COc1ccc(OCC(=O)Nc2cccc(NC(=O)c3ccc(N(C)C)cc3)c2)cc1F`: 0.652 µM, 1.82 µM and more than 10 µM.
Turning to `CN(C)c1ccc(C(=O)Nc2cccc(NC(=O)COc3ccc4occc(=O)c4c3)c2)cc1`, the IC50 in assay [1], in assay [2] and in assay [3] was more than 10 µM in each case.
Regarding `CC(=O)Nc1cccc(NC(=O)COc2ccc3c(=O)ccoc3c2)c1`, the figures for the IC50 in assay [1], in assay [2] and in assay [3] were 0.136 µM, 2.5 µM and more than 10 µM, respectively.
The matching figures for `CN(C)c1ccc(C(=O)Nc2cccc(NC(=O)COc3ccc4c(c3)CCC(=O)N4)c2)cc1`: 9.97 µM, more than 10 µM and more than 10 µM.
For `COc1ccc(OCC(=O)Nc2cccc(NC(=O)c3ccc(N(C)C)cc3)c2)cc1OC`, in that order: more than 10 µM, more than 10 µM and more than 10 µM.
For `COc1cc(OCC(=O)Nc2cccc(NC(=O)c3ccc(N(C)C)cc3)c2)ccc1C=O`, in that order: 0.306 µM, 3.74 µM and more than 10 µM.
As to `CC(C)(C)c1ccc(C(=O)Nc2cccc(NC(=O)COc3ccc4c(=O)ccoc4c3)c2)cc1`, the IC50 is 0.034 µM in assay [1], 0.165 µM in assay [2] and more than 10 µM in assay [3].
For `CN(C)c1ccc(C(=O)Nc2cccc(NC(=O)COc3ccc4c(c3)OCCC4=O)c2)cc1`, in that order: 0.085 µM, 0.144 µM and more than 10 µM.
The matching figures for `Cc1coc2cc(OCC(=O)Nc3cccc(NC(=O)c4ccc(N(C)C)cc4)c3)ccc2c1=O`: 2.15 µM, more than 10 µM and more than 10 µM.
For `CN(C)c1ccc(C(=O)Nc2cccc(NC(=O)COc3ccc4c(c3)OCO4)c2)cc1`, in that order: more than 10 µM, more than 10 µM and more than 10 µM.
In the case of `CCCc1ccc(C(=O)Nc2cccc(NC(=O)COc3ccc4c(=O)ccoc4c3)c2)cc1`, the figures for the IC50 in assay [1], in assay [2] and in assay [3] were 0.014 µM, 0.143 µM and more than 10 µM, respectively.
On to `CN(C)c1ccc(C(=O)Nc2cccc(NC(=O)COc3ccc4c(c3)OCCO4)c2)cc1`, for which the IC50 in assay [1], in assay [2] and in assay [3] was more than 10 µM each time.
Regarding `CN(C)c1ccc(C(=O)Nc2cccc(NC(=O)COc3ccc4c(c3)NC(=O)CC4)c2)cc1`, the values for the IC50 in assay [1], in assay [2] and in assay [3] were 3.14 µM, more than 10 µM and more than 10 µM, respectively.
On to `COc1cccc(OCC(=O)Nc2cccc(NC(=O)c3ccc(N(C)C)cc3)c2)c1`, for which the results for the IC50 in assay [1], in assay [2] and in assay [3] were 5.74 µM, more than 10 µM and more than 10 µM, respectively.
On to `O=C(COc1ccc2c(=O)ccoc2c1)Nc1cccc(NC(=O)c2ccccc2)c1`, for which the IC50 in assay [1] was determined as 0.016 µM; in assay [2], 0.12 µM; in assay [3], 3.25 µM.
For `O=C(COc1ccc2c(=O)ccoc2c1)Nc1cccc(NC(=O)c2ccc(F)cc2)c1`, the IC50 was 0.054 µM in assay [1], 0.129 µM in assay [2] and more than 10 µM in assay [3].
